The subject of series [1] is RAW 264.7 macrophages treated with LeTx (PA and LF). The experiment in a line: cells. The following applies: Mus musculus, RAW264.7, read-out: IC50 Cell Viability.
The target in another series is LF protease activity (Bacillus anthracis, UniProt P15917). Put plainly: biochemical.
Series [2] has as its system RAW 264.7 macrophages treated with LeTx (PA and LF).
Series [3] concerns the target Anthrax Lethal Factor (LF) (Bacillus anthracis, UniProt P15917). Put plainly: biochemical. Type of series: binding.
In the next series the target is COX-1 (Homo sapiens, UniProt P23219). To be noted: read-out: IC50 COX-1; cited from earlier work.
The next series concerns the target COX-2 (Homo sapiens, UniProt P35354). To be noted: read-out: IC50 COX-2; cited from earlier work.
The conditions of series [4]: in vivo, cited from earlier work.

Read-outs that look alike come from different tables or passages of the source.

The source of these data is patent publication US20150087605A1 (priority 2013, published 2015).

For orientation: IC50 means the concentration needed to halve the response being measured. In general, Kd refers to the equilibrium constant for the complex coming apart.

Chain of LF protease activity (P15917 34-809 limits assumed): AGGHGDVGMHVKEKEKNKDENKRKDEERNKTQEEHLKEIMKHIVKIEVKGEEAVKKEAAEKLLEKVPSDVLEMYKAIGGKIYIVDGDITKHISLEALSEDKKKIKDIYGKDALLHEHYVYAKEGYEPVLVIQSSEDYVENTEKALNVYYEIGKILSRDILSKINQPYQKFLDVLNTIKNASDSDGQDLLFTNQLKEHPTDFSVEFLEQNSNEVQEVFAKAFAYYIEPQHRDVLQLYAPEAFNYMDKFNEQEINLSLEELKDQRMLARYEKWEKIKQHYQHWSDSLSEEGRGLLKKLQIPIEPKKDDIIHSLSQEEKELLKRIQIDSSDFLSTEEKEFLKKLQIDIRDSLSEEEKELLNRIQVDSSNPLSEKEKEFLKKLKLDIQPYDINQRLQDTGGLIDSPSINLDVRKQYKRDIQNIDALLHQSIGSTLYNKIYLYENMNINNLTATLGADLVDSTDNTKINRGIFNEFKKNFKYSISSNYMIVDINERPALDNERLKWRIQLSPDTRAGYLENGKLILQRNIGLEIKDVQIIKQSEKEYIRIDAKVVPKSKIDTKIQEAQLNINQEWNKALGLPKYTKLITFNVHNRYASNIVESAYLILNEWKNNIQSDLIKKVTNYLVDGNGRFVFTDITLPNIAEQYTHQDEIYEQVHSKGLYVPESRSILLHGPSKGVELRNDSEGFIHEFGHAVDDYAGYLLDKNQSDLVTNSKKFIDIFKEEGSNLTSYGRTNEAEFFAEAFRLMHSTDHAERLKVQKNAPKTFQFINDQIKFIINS
Chain of Anthrax Lethal Factor (LF) (P15917 34-809 limits assumed): as above
Chain of COX-2 (P35354 18-604): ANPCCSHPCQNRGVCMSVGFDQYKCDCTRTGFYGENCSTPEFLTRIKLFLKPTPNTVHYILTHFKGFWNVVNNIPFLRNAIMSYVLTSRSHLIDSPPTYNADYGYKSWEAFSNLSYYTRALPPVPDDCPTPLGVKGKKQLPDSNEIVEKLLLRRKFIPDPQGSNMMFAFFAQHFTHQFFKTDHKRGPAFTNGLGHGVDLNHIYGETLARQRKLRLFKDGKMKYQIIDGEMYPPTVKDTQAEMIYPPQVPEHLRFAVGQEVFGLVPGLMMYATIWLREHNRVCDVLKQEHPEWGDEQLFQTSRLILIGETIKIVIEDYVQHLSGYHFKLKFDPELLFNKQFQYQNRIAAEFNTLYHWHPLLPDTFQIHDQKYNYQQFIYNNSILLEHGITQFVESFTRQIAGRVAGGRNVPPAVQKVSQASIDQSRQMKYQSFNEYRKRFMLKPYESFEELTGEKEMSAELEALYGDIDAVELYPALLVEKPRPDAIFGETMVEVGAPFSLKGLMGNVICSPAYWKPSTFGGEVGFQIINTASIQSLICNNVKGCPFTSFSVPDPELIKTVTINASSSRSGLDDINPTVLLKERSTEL
Chain of COX-1 (P23219 24-599): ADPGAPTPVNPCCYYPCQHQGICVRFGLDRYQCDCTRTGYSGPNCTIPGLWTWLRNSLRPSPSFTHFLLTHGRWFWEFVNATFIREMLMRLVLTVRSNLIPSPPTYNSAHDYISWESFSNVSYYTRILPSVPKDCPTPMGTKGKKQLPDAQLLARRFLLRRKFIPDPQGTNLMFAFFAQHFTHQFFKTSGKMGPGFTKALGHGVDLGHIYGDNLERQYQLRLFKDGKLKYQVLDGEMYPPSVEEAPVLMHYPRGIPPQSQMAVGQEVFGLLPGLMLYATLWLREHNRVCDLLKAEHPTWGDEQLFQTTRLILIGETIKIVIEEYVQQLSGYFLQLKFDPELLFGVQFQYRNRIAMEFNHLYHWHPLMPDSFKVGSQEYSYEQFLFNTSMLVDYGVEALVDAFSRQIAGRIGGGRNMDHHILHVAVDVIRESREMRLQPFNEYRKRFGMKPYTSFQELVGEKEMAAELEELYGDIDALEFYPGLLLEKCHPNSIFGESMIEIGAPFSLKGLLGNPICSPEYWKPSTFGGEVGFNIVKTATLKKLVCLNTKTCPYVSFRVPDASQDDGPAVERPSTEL

Regarding `CSc1ccc(/C=C2/C(C)=C(CC(=O)O)c3cc(F)ccc32)cc1` [sulindac sulfide, Sulindac Sulfide], the IC50 is 20.4 µM in series [1] and 19.1 µM at LF protease activity (IC50 Protease Activity).

In the case of `CC1=C(CC(=O)O)c2cc(F)ccc2/C1=C\c1ccc(S(C)(=O)=O)cc1` [sulindac sulfone, Sulindac Sulfone], the results for the IC50 (on LF protease activity (read-out: IC50 Protease Activity); in series [2] (read-out: IC50 Cell Viability)) were 185 µM and 56.6 µM, respectively.

On to `CCCCc1ccc(C(=O)NCCCN=[N+]=[N-])nc1` [fusaric acid-N3], for which the IC50 in series [1] was 164 µM; against LF protease activity (IC50 (fluorogenic substrate assay)) it was 1100 µM.

On to `CC1=C(CC(=O)NCCCN=[N+]=[N-])c2cc(F)ccc2/C1=C\c1ccc([S+](C)[O-])cc1` (stereo not shown) [sulindac-N3], for which the IC50 amounted to 90.1 µM in series [1] and 420 µM on LF protease activity (IC50 Protease Activity).

As for `CC1=C(CC(=O)O)c2cc(F)ccc2/C1=C\c1ccc([S+](C)[O-])cc1` (stereo not shown) [Sulindac], the IC50 in series [1] was 31.7 µM; at LF protease activity (IC50 Protease Activity), 173 µM; at COX-1, 41.3 µM; at COX-2, 25 µM. Binding in series [3] was characterised by a dissociation constant (Kd) of 2.8 µM. Moreover, the mean half-life in series [4] (150 mg) was 7.8 h. For the same molecule, the “maximum concentration in human blood plasma” value in series [4] was 5.71 ± 2.17 µg/mL.

For `CCCCc1ccc(C(=O)O)nc1` [Fusaric Acid], the IC50 in series [1] worked out at 75.3 µM; against LF protease activity (IC50 Protease Activity), 530 µM. The molecule further returned a Kd in series [3] of 4.5 µM.

For the molecule `CCCCc1ccc(C(=O)NCCCn2cc(CNC(C)=O)nn2)nc1` [fusaric acid-bMR], the IC50 at LF protease activity (IC50 Protease Activity) stood at 1.2 ± 0.36 µM; in series [2] (mouse), 0.721 µM.

In the case of `COc1ccc2cc([C@H](C)C(=O)O)ccc2c1` [Naproxen, (S)-(+)-6-Methoxy-α-methyl-2-naphthaleneacetic acid], the “inhibition of LF protease activity (in words)” value against LF protease activity is recorded as “failed to inhibit LF”. For the same molecule, in series [2], the “inhibition of LeTx cytotoxicity (in words)” value was “failed to inhibit LeTx”.
